Measured values taken from patent US9957325B2, “Synthetic antibody mimic peptides” (Formurex, Inc., priority 2015, dated 2018).
Like-named read-outs stand apart in the source and are kept apart here. One block for each compound: values may come before it. Where a SMILES comes first, the peptide text is derived from it. The star is where a group is joined. X1 = CC[C@H](C)[C@@H]([C@@H](CC(=O)N1CCC[C@H]1[C@H](OC)[C@@H](C)C(=O)N[C@H](C)[C@@H](OC(=O)CCCCC(=NNC(=O)CCCCCN1C(=O)CC(*)C1=O)c1ccccc1)c1ccccc1)OC)N(C)C(=O)[C@@H](NC(=O)[C@H](C(C)C)N(C)C)C(C)C

What was measured:
MDA-MB-468 cells = assay: In vitro cytotoxicity, sulforhodamine B assay; type: cell-based; conditions: MDA-MB-468, 72 h, SRB
Experimental: (§1) Cells were cultured to 80% confluency in T75 culture flasks using Dulbecco's Modified Eagle's Medium (DMEM) as growth medium. The cell density was determined using a Coulter Counter. The cells were seeded onto 96 well plates and grown for 24 h. to 50% confluency. […] At the end of the incubation period, the cells were fixed using 10% trichloroacetic acid, followed by washing with distilled water and drying. The cellular proteins were stained using 50 μL of 0.4% sulforhodamine B (SRB) in 1% acetic acid. Unbound SRB was washed with 1% acetic acid and the plates were dried overnight. The cell-bound SRB was then solubilized using 200 μL of 10 mM unbuffered Tris base solution. SRB absorbance was measured at 560 nm wavelength using a Plate Reader. The percent viability of cells was plotted as a function of log concentration and data was analyzed in GraphPad Prism Version 5.0 software (GraphPad Software, Inc., California, USA) using a nonlinear-regression curve fit (variable slope four parameter equation).

A431 cells = conditions: for more potent than the drug alone: EGFR over-expressing cancer cells (A431, MDA-MB-468), vs auristatin E
Experimental: as §1

HEK 293 cells = tested on: HEK 293 cells
Experimental: as §1

[1] = Peptide-drug conjugate pH hydrolysis study; type: physicochemical
Experimental: Peptide-drug conjugate was evaluated for half-life determination at pH 5 and 7.4. For this, a 1 mg/mL concentration of PDC was incubated in ammonium bicarbonate buffers, pH 5 and 7.4. Degradation of PDC was evaluated by calculating the area under the curve after 0, 0.5, 1, 2, 4, 6 and 48 hours using HPLC with a gradient method, with TEAA buffer pH 7 and acetonitrile.

Recombinant human EGFR = Recombinant human EGFR (Homo sapiens, UniProt P00533); assay: Surface plasmon resonance on immobilized EGFR; conditions: SPR, EGFR as immobilized surface, 1:1 binding model, 25° C.
Chain of Recombinant human EGFR (P00533 25-1210): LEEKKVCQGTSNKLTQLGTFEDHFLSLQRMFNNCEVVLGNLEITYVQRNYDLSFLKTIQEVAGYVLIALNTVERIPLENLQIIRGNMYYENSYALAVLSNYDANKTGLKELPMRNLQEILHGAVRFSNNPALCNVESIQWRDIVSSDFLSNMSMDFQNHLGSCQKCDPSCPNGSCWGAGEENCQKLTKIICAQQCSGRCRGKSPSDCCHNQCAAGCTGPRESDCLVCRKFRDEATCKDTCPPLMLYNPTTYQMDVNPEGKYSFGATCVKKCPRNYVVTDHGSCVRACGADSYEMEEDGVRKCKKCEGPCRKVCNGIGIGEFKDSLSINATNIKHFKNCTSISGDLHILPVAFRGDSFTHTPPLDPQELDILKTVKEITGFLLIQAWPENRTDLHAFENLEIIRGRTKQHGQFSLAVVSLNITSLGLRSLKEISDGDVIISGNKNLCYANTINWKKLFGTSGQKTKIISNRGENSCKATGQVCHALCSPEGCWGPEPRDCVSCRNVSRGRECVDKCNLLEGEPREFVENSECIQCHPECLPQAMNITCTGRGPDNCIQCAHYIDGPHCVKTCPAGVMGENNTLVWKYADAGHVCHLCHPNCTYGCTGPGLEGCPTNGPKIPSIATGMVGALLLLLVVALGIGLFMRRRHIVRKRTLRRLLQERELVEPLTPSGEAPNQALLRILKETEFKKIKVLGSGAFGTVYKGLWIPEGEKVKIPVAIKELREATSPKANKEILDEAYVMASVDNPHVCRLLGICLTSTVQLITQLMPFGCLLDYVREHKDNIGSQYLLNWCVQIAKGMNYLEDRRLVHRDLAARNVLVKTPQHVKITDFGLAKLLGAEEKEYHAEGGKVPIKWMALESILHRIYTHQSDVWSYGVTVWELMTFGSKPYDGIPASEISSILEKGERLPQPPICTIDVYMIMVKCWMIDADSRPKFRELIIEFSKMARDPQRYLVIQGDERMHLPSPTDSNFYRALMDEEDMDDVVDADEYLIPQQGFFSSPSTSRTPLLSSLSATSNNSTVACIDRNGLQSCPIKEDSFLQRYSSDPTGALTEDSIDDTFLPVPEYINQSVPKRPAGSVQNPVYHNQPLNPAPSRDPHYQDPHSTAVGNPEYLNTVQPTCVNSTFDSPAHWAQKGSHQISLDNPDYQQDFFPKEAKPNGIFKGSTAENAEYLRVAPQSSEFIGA
Experimental: Binding affinity constant of antibody mimics was calculated by surface plasmon resonance (Reichert SR7000DC). A carboxymethyl dextran gold sensor chip was activated by N-hydroxysuccinimide (NHS) and N-ethyl-N″-[3-([…])propyl] carbodiimide (EDC) at 25° C. using phosphate buffered saline pH 7.4 with 0.05% tween 20 as running buffer. […] Unreactive sites were blocked by flowing over the chip 1 M ethanolamine pH 8.5 at 10 μL/min for 8 minutes. […] The resulting sensograms were globally fitted using Scrubber2 software (BioLogic Software, Campbell, Australia) in a 1:1 binding model to determine the association rate (kon), dissociation rate (kd or koff), and dissociation constant KD.

SMILES: CC[C@H](C)[C@@H]([C@@H](CC(=O)N1CCC[C@H]1[C@H](OC)[C@@H](C)C(=O)N[C@H](C)[C@@H](O)c1ccccc1)OC)N(C)C(=O)[C@@H](NC(=O)[C@H](C(C)C)N(C)C)C(C)C [Auristatin E, reference compound]
IC50 (MDA-MB-468 cells): 0.0117 nM
IC50 (A431 cells; A431, 72 h, SRB): 0.0246 nM
IC50 (HEK 293 cells; HEK 293, 72 h, SRB): 0.0626 nM

SMILES: CC[C@H](C)[C@@H]([C@@H](CC(=O)N1CCC[C@H]1[C@H](OC)[C@@H](C)C(=O)N[C@H](C)[C@@H](OC(=O)CCCCC(=NNC(=O)CCCCCN1C(=O)CC(SC[C@H](NC(=O)[C@H](C)NC(=O)[C@H](CCC(=O)O)NC(=O)[C@H](Cc2ccc(O)cc2)NC(=O)[C@H](CC(=O)O)NC(=O)[C@H](Cc2ccc(O)cc2)NC(=O)[C@H](Cc2ccccc2)NC(=O)[C@@H](NC(=O)CNC(=O)[C@@H]2CCCN2C(=O)CNC(=O)[C@H](CC(N)=O)NC(=O)[C@H](CCC(=O)O)NC(=O)CNC(=O)[C@H](CO)NC(=O)[C@@H](N)Cc2c[nH]c3ccccc23)[C@@H](C)O)C(=O)O)C1=O)c1ccccc1)c1ccccc1)OC)N(C)C(=O)[C@@H](NC(=O)[C@H](C(C)C)N(C)C)C(C)C (some centres unmarked) [PDC] (H-WSGENGPGTFYDYEAC(X1)-OH; N-terminus and C-terminus assumed)
more potent than the drug alone (A431 cells): approximately 10 fold
more potent than the drug alone (A431 cells; listed as Peptide-drug conjugate): around 10 fold
potency lower than drug alone (HEK 293 cells; control cells (HEK 293), vs auristatin E): more than 100 fold
half-life at 1 mg/mL ([1]; pH 5, ammonium bicarbonate buffer): 2.8 h
half-life at 1 mg/mL ([1]; pH 7.4, ammonium bicarbonate buffer): > 48 h

koff (Recombinant human EGFR): 0.00581 s⁻¹
kon (Recombinant human EGFR): 1210 M⁻¹ s⁻¹
SMILES: C[C@H](NC(=O)[C@H](CCC(=O)O)NC(=O)[C@H](Cc1ccc(O)cc1)NC(=O)[C@H](CC(=O)O)NC(=O)[C@H](Cc1ccccc1)NC(=O)[C@H](Cc1ccc(O)cc1)NC(=O)CNC(=O)[C@@H]1CCCN1C(=O)CNC(=O)[C@H](CC(N)=O)NC(=O)[C@H](CCC(=O)O)NC(=O)CNC(=O)[C@H](CO)NC(=O)[C@@H](N)Cc1c[nH]c2ccccc12)C(=O)O [Pep6] (H-WSGENGPGYFDYEA-OH; N-terminus and C-terminus assumed)

koff (Recombinant human EGFR): 0.0259 s⁻¹
kon (Recombinant human EGFR): 43500 M⁻¹ s⁻¹
SMILES: C[C@H](NC(=O)[C@H](CCC(=O)O)NC(=O)[C@H](Cc1ccc(O)cc1)NC(=O)[C@H](CC(=O)O)NC(=O)[C@H](Cc1ccc(O)cc1)NC(=O)[C@H](Cc1ccccc1)NC(=O)[C@@H](NC(=O)CNC(=O)[C@@H]1CCCN1C(=O)CNC(=O)[C@H](CC(N)=O)NC(=O)[C@H](CCC(=O)O)NC(=O)CNC(=O)[C@H](CO)NC(=O)[C@@H](N)Cc1c[nH]c2ccccc12)[C@@H](C)O)C(=O)O [Pep22] (H-WSGENGPGTFYDYEA-OH; N-terminus and C-terminus assumed)

koff (Recombinant human EGFR): 0.103 s⁻¹
kon (Recombinant human EGFR): 14300 M⁻¹ s⁻¹
SMILES: C[C@H](N)C(=O)N[C@@H](CCC(=O)O)C(=O)N[C@@H](Cc1ccc(O)cc1)C(=O)N[C@@H](CC(=O)O)C(=O)N[C@@H](Cc1ccccc1)C(=O)N[C@@H](Cc1ccc(O)cc1)C(=O)NCC(=O)N1CCC[C@H]1C(=O)NCC(=O)N[C@@H](CC(N)=O)C(=O)N[C@@H](CCC(=O)O)C(=O)NCC(=O)N[C@@H](CO)C(=O)N[C@@H](Cc1c[nH]c2ccccc12)C(=O)O [Pep24] (H-AEYDFYGPGNEGSW-OH; N-terminus and C-terminus assumed)
